From patent US7943795B2, “Vitamin D receptor modulators” (Eli Lilly and Company, priority 2004, dated 2011)

Assays:
RXR-VDR heterodimer = target: T1, RXR-VDR heterodimer (Homo sapiens, UniProt P11473); assay: RXR-VDR heterodimerization (SaOS-2 cells) test; type: cell-based; conditions: Gal-4-RXR-DEF / VP16-VDR-LBD, luciferase reporter
T1 construct: add the Reporter gene pFR-LUC; and add the Gal-4-RXR-DEF and VP16-VDR-LBD; expressed in transfected cells; host or cells: SaOS-2 cells
T1 sequence (P11473 127-423 limits assumed): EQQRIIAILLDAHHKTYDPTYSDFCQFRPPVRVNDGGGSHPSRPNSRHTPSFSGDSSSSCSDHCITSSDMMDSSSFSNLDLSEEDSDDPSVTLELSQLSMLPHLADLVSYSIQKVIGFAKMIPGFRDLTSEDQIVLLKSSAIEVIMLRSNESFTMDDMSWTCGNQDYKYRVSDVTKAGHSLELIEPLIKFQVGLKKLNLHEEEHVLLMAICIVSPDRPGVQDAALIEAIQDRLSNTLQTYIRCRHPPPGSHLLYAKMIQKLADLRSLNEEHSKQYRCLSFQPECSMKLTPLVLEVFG
T1 sequence (P19793 201-462 partner limits assumed): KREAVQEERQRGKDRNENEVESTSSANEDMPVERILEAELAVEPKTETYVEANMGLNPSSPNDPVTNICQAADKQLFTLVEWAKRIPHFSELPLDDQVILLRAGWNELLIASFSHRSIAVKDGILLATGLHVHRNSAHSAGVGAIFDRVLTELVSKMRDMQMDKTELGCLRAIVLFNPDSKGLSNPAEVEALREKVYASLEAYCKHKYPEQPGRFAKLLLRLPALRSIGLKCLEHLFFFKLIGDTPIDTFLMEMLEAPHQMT
Experimental: 2. The RXR-VDR heterodimerization (SaOS-2 cells) test is described in the “Assay” section of the Description, infra.
1. The RXR-VDR Heterodimer Assay:
This assay provides the VDR activity of a test compound. It is desirable to have low EC50 values for a compound in this assay. […] Desired assay results are EC50 values less than or equal to 600 nM. Preferred assay results are less than 250 nM, and most preferably less than 150 nM.
(1) Materials and Method for RXR-VDR Heterodimerization Assay Transfection
• Method: Reagents: FuGENE 6 Transfection Reagent (Roche Cat #1 814 443); Growth Media: D-MEM High Glucose (Gibco BRL Cat #11054-020), 10% heat inactivated FBS, (Gibco BRL Cat#10092-147) 1% antibiotic-antimycotic (Ab-Am); (Gibco BRL Cat #15240-062). • Cells: Grow SaOS-2 cells in T-150 cm^2 culture flasks in growth media keeping the density at 5-6×10^5 cells/ml. Passage cells 1:3 twice a week. Add Trypsin EDTA (Gibco BRL Cat #25300-020) and incubate. Resuspend cells in plating media and transfer into growth media. • Wash Media: HBSS Low Glucose Without Phenol Red (Gibco BRL Cat #14175-095), 1% Ab-Am. Plating Media: D-MEM Low Glucose Without Phenol Red (Gibco BRL Cat #11054-020), 1% Ab-Am; D-MEM; 10% Stripped FBS (Hyclone Cat#SH30068.03 Lot #AHM9371); • Transfection/Treatment Media: D-MEM Low Glucose Without Phenol Red only; T-150 cm^2 culture flask: Use Corning Coastar T-150 cm^2 culture flask (Cat #430825) to grow the cells. • Luciferase Assay Reagent: Use Steady-Glo Luciferase Reagent from Promega (Cat #E2550) Consists of: E2533 Assay Substrate, lyophilized product and E2543 Assay Buffer. Thaw at room temperature and store. • Cell Harvesting/Count: Aspirate media from culture flask, rinse cells with HBSS and aspirate. Add trypsin and incubate. When cells appear detached, resuspend cells in growth media. Transfer into a new flask with fresh growth media for passaging the cells. Plate 96 well plates and two extra plates. Mix the cell suspension using pipette. To count the cells using a Hematocytometer. • Plate seeding: Use plating media 10% Stripped FBS in D-MEM Low Glucose, without Phenol Red, 1% Ab-Am. Plate 14 plates @ 165 μl/well. In sterile flask add cell suspension to plating media and mix. Add cells/well. Place the cells in the incubator. Cells should be about 75% confluent prior to transfection. DAY 2: Transfection: Step 1, DNA and Media: Add plain DMEM media to tubes for mixing the DNA; add the Reporter gene pFR-LUC; and add the Gal-4-RXR-DEF and VP16-VDR-LBD. Step 2, FuGENE and Media: Prepare plain DMEM media in a tubes for mixing FuGENE, add FuGENE 6 Transfection Reagent, and incubate. Step 3, FuGENE, DNA and Media Complex: Add FuGENE Media complex from step 2 to DNA Media complex from step 1 and incubate. Step 4, FuGENE, DNA and Media Complex to 96 well plate: Add FuGENE-DNA-Media complex from step 3 to each plate. Incubate. • Day 3: Dosing: Treatment preparation. Allow for transfection time. Make a stock solution of the compounds in DMSO and vortex until all the compounds have been dissolved. Further dilute in D-MEM (Low Glucose—without Phenol Red) Add compounds in quadruplicate to give desired final volume then incubate. • Day 4: Luciferase Assay: Read the plates after drug treatment. Remove part of media from all the wells and leave remainder. Add Steady-Glo Luciferase Reagent mixture/wells and incubate. Count each well using a Luminescence counter, Top Count NXT by Packard preferably set a delay between plates to reduce the background.

rat osteocalcin promoter = assay: OCN (osteocalcin) promoter assay; type: cell-based; conditions: RG-15 (ROS 17/2.8) cells, 48 hr treatment, luciferase reporter
Experimental: 4. The OCN Promoter test is described in the “Assay” section of the Description, infra.
The OCN (Osteocalcin) Promoter Assay
The OCN Promoter Assay is an indicator and marker for osteoporosis. Desired assay results are EC50 less than or equal to 325 nM. Preferred assay results are less than 50 nM.
The activation of osteocalcin by VDR ligands is evaluated in a rat osteoblast-like cell line RG-15 (ROS 17/2.8) stably expressing rat osteocalcin promoter fused with luciferase reporter gene. The stable cell lines are established as reported before (Activation of Osteocalcin Transcription involves interaction of protein kinase A- and Protein kinase C-dependent pathways. Boguslawski, G., Hale, L. V., Yu, X.-P., Miles, R. R., Onyia, J. E., Santerre R. F., Chandrasekhar, S. J Biol. Chem. 275, 999-1006, 2000). Confluent RG-15 cells maintained in DMEM/F-12 medium (3:1) containing 5% FBS, 300 μg/ml G418 and at 37° C. under 5% CO2/95% air atmosphere are trypsinized (0.25% trypsin) and plated into white opaque 96-well cell culture plates (25000 cells/well). After 24 hr, cells (in DMEM/F-12 medium+2% FBS) are treated with various concentrations of compounds, dissolved in DMSO. The final DMSO concentration remains at 0.01% (v/v). After 48 hr treatment, the medium is removed, cells are lysed with 50 μl of lysis buffer (From Luciferase reporter assay system, Roche Diagnostics, Indianapolis, Ind.) and then assayed for luciferase activity using the Luciferase Reporter Gene Assay kit from Boehringer Mannheim as per manufacturer's specifications.

| Structure (SMILES) | EC50 (RXR-VDR heterodimer) [nM] | EC50 (rat osteocalcin promoter) [nM] | EC50 (rat osteocalcin promoter; Rattus norvegicus, 48 h) [nM] |
| --- | --- | --- | --- |
| CCC(CC)(c1ccc(OCC(O)C(C)(C)C)c(C)c1)c1ccc2cc(C(=O)O)ccc2c1 (single isomer, unassigned) [Ex. 2A, 6-{1-Ethyl-1-[4-(2-hydroxy-3,3-dimethyl-butoxy)-3-methyl-phenyl]-propyl}-naphthalene-2-carboxylic acid] | 30.2 | 6 |  |
| CCC(CC)(c1ccc(OCC(=O)C(C)(C)C)c(C)c1)c1ccc2cc(C(=O)O)ccc2c1 [Ex. 1, 6-{1-[4-(3,3-dimethyl-2-oxobutoxy)-3-methylphenyl]-1-ethylpropyl}naphthalene-2-carboxylic acid] | 40 |  | 2.6 |
| CCC(CC)(c1ccc(OCC(=O)C(C)(C)C)c(C)c1)c1ccc2cc(C(=O)NCC(=O)O)ccc2c1 [Ex. 3, [(6-{1-[4-(3,3-Dimethyl-2-oxo-butoxy)-3-methylphenyl]-1-ethylpropyl}naphthalene-2-carbonyl)amino]acetic acid] | 0.4 |  | 0.1 |
| CCC(CC)(c1ccc(OCC(=O)C(C)(C)C)c(C)c1)c1ccc2cc(C(=O)N(C)C)ccc2c1 [Ex. 4, 6-{1-[4-(3,3-dimethyl-2-oxobutoxy)-3-methylphenyl]-1-ethylpropyl}naphthalene-2-carboxylic acid dimethylamide] | 105 |  | 41 |
| CCC(CC)(c1ccc(OCC(=O)C(C)(C)C)c(C)c1)c1ccc2cc(C(=O)N(C)CC(=O)O)ccc2c1 [Ex. 5, [(6-{1-[4-(3,3-Dimethyl-2-oxobutoxy)-3-methylphenyl]-1-ethylpropyl}naphthalene-2-carbonyl)methylamino]acetic acid] | 1 |  | 0.2 |
